Tests used:
Assay in all cases: relative viability (nuclei count vs DMSO), 5 days (fraction); higher = more cells survive
GSK126 + Foretinib = compound: CC[C@H](C)N1C=C(C2=C(C=C(C=C21)C3=CN=C(C=C3)N4CCNCC4)C(=O)NCC5=C(C=C(NC5=O)C)C)C [GSK126] + COc1cc2c(Oc3ccc(NC(=O)C4(C(=O)Nc5ccc(F)cc5)CC4)cc3F)ccnc2cc1OCCCN1CCOCC1 [Foretinib] (partner 0.25 µM)
Outline: (§1)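 After 5 days of treatment, lung cancer cells in 1536-well plates were fixed and stained in a single step (final 0.05% Triton X-100, 1% formaldehyde, 1 ug/ml Hoechst) and their nuclei counted on 4× images. Treatment had been applied by pin tool the day after seeding as one drug alone or as a fixed anchor-drug dose with five library-drug doses (not always all listed) in √10 steps. Relative viability is the nuclei count of treated wells divided by that of vehicle wells, and values are medians of duplicate plates.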

MLN4924 + OSI-027 = compound: NS(=O)(=O)OC[C@@H]1C[C@@H](n2ccc3c(N[C@H]4CCc5ccccc54)ncnc32)C[C@@H]1O [MLN4924] + COc1cccc2cc(-c3nc([C@H]4CC[C@H](C(=O)O)CC4)n4ncnc(N)c34)[nH]c12 [OSI-027] (partner 0.5 µM)
Outline: as §1

Carboplatin + Pemetrexed = compound: C1CC(C1)(C(=O)O)C(=O)O.[NH2-].[NH2-].[Pt+2] [Carboplatin] + Nc1nc2[nH]cc(CCc3ccc(C(=O)N[C@@H](CCC(=O)O)C(=O)O)cc3)c2c(=O)[nH]1 [Pemetrexed] (partner 0.2 µM)
Outline: as §1

Carboplatin + Luminespib = compound: C1CC(C1)(C(=O)O)C(=O)O.[NH2-].[NH2-].[Pt+2] [Carboplatin] + CCNC(=O)c1noc(-c2cc(C(C)C)c(O)cc2O)c1-c1ccc(CN2CCOCC2)cc1 [Luminespib] (partner 0.01 µM)
Outline: as §1

## NCI-H1944
GSK126 + Foretinib; first compound 0.08 µM
  relative viability: 0.918
GSK126 + Foretinib; first compound 0.253 µM
  relative viability: 0.837
GSK126 + Foretinib; first compound 0.8 µM
  relative viability: 0.854
GSK126 + Foretinib; first compound 2.53 µM
  relative viability: 0.872
GSK126 + Foretinib; first compound 8 µM
  relative viability: 0.956
MLN4924 + OSI-027; first compound 0.04 µM
  relative viability: 0.502
MLN4924 + OSI-027; first compound 0.1265 µM
  relative viability: 0.453
MLN4924 + OSI-027; first compound 0.4 µM
  relative viability: 0.313
MLN4924 + OSI-027; first compound 1.265 µM
  relative viability: 0.161
MLN4924 + OSI-027; first compound 4 µM
  relative viability: 0.185
Carboplatin + Pemetrexed; first compound 0.08 µM
  relative viability: 0.644
Carboplatin + Pemetrexed; first compound 0.253 µM
  relative viability: 0.557
Carboplatin + Pemetrexed; first compound 0.8 µM
  relative viability: 0.643
Carboplatin + Pemetrexed; first compound 2.53 µM
  relative viability: 0.526
Carboplatin + Pemetrexed; first compound 8 µM
  relative viability: 0.485
Carboplatin + Luminespib; first compound 0.08 µM
  relative viability: 0.881
Carboplatin + Luminespib; first compound 0.253 µM
  relative viability: 0.661
Carboplatin + Luminespib; first compound 0.8 µM
  relative viability: 0.661
Carboplatin + Luminespib; first compound 2.53 µM
  relative viability: 0.452
Carboplatin + Luminespib; first compound 8 µM
  relative viability: 0.389

## HARA
GSK126 + Foretinib; first compound 0.08 µM
  relative viability: 1.14
GSK126 + Foretinib; first compound 0.253 µM
  relative viability: 0.93
GSK126 + Foretinib; first compound 0.8 µM
  relative viability: 0.874
GSK126 + Foretinib; first compound 2.53 µM
  relative viability: 0.877
GSK126 + Foretinib; first compound 8 µM
  relative viability: 0.839
MLN4924 + OSI-027; first compound 0.04 µM
  relative viability: 0.465
MLN4924 + OSI-027; first compound 0.1265 µM
  relative viability: 0.361
MLN4924 + OSI-027; first compound 0.4 µM
  relative viability: 0.271
MLN4924 + OSI-027; first compound 1.265 µM
  relative viability: 0.0502
MLN4924 + OSI-027; first compound 4 µM
  relative viability: 0.0686
Carboplatin + Pemetrexed; first compound 0.08 µM
  relative viability: 0.232
Carboplatin + Pemetrexed; first compound 0.253 µM
  relative viability: 0.201
Carboplatin + Pemetrexed; first compound 0.8 µM
  relative viability: 0.241
Carboplatin + Pemetrexed; first compound 2.53 µM
  relative viability: 0.247
Carboplatin + Pemetrexed; first compound 8 µM
  relative viability: 0.246
Carboplatin + Luminespib; first compound 0.08 µM
  relative viability: 0.847
Carboplatin + Luminespib; first compound 0.253 µM
  relative viability: 0.756
Carboplatin + Luminespib; first compound 0.8 µM
  relative viability: 0.701
Carboplatin + Luminespib; first compound 2.53 µM
  relative viability: 0.573
Carboplatin + Luminespib; first compound 8 µM
  relative viability: 0.752

## NCI-H2347
GSK126 + Foretinib; first compound 0.08 µM
  relative viability: 0.842
GSK126 + Foretinib; first compound 0.253 µM
  relative viability: 0.861
GSK126 + Foretinib; first compound 0.8 µM
  relative viability: 1.07
GSK126 + Foretinib; first compound 2.53 µM
  relative viability: 1.25
GSK126 + Foretinib; first compound 8 µM
  relative viability: 1.35
MLN4924 + OSI-027; first compound 0.04 µM
  relative viability: 0.39
MLN4924 + OSI-027; first compound 0.1265 µM
  relative viability: 0.375
MLN4924 + OSI-027; first compound 0.4 µM
  relative viability: 0.354
MLN4924 + OSI-027; first compound 1.265 µM
  relative viability: 0.214
MLN4924 + OSI-027; first compound 4 µM
  relative viability: 0.29
Carboplatin + Pemetrexed; first compound 0.08 µM
  relative viability: 0.432
Carboplatin + Pemetrexed; first compound 0.253 µM
  relative viability: 0.452
Carboplatin + Pemetrexed; first compound 0.8 µM
  relative viability: 0.403
Carboplatin + Pemetrexed; first compound 2.53 µM
  relative viability: 0.407
Carboplatin + Pemetrexed; first compound 8 µM
  relative viability: 0.525
Carboplatin + Luminespib; first compound 0.08 µM
  relative viability: 0.573
Carboplatin + Luminespib; first compound 0.253 µM
  relative viability: 0.421
Carboplatin + Luminespib; first compound 0.8 µM
  relative viability: 0.368
Carboplatin + Luminespib; first compound 2.53 µM
  relative viability: 0.432
Carboplatin + Luminespib; first compound 8 µM
  relative viability: 0.352

## COR-L 105
GSK126 + Foretinib; first compound 0.08 µM
  relative viability: 1.23
GSK126 + Foretinib; first compound 0.253 µM
  relative viability: 1.08
GSK126 + Foretinib; first compound 0.8 µM
  relative viability: 0.989
GSK126 + Foretinib; first compound 2.53 µM
  relative viability: 0.871
GSK126 + Foretinib; first compound 8 µM
  relative viability: 0.99
MLN4924 + OSI-027; first compound 0.04 µM
  relative viability: 0.721
MLN4924 + OSI-027; first compound 0.1265 µM
  relative viability: 0.617
MLN4924 + OSI-027; first compound 0.4 µM
  relative viability: 0.511
MLN4924 + OSI-027; first compound 1.265 µM
  relative viability: 0.238
MLN4924 + OSI-027; first compound 4 µM
  relative viability: 0.311
Carboplatin + Pemetrexed; first compound 0.08 µM
  relative viability: 1.13
Carboplatin + Pemetrexed; first compound 0.253 µM
  relative viability: 1.27
Carboplatin + Pemetrexed; first compound 0.8 µM
  relative viability: 1.18
Carboplatin + Pemetrexed; first compound 2.53 µM
  relative viability: 0.854
Carboplatin + Pemetrexed; first compound 8 µM
  relative viability: 0.615
Carboplatin + Luminespib; first compound 0.08 µM
  relative viability: 1.04
Carboplatin + Luminespib; first compound 0.253 µM
  relative viability: 0.851
Carboplatin + Luminespib; first compound 0.8 µM
  relative viability: 0.677
Carboplatin + Luminespib; first compound 2.53 µM
  relative viability: 0.667
Carboplatin + Luminespib; first compound 8 µM
  relative viability: 0.648

Source: the supplement of paper PMC10307832
